Measurements taken from patent US20250235499A1, “ANTI-OVARIAN CANCER PHARMACEUTICAL COMPOSITION AND ACTION TARGET THEREOF” (Zhejiang Chinese Medical University, priority 2024, published 2025).

Assays:
Assay type in all cases: cell-based, human
[1] = tested on: SKOV3 ovarian cancer cells; assay: Cell migration and invasion (small chamber) with MCM2 knockdown or overexpression
Experimental: (§1) The night before collecting cells, small chambers were placed in a 24 well plate. A matrix gel was taken out from the −20° C. refrigerator and placed to melt naturally on ice. The thawed matrix gel was mixed with serum-free medium in a ratio of 1:5, and 100 μL of the mixture was added to each chamber. After preparation, the 24 well plate was placed in the incubator overnight. The next day, SKOV3 and Hey ovarian cancer cells in logarithmic growth phase were knocked down with MCM2 (Control group, sh-NC group, sh-MCM2 group) and overexpressed with MCM2 (Control group, OE-NC group, OE-MCM2 group). The original culture medium was discarded, washed with PBS buffer, and digested with 0.1% trypsin. A corresponding serum-free culture medium was added to prepare a cell suspension. Cells were counted using a hemocytometer and the cell concentration was quantified at 5×10^4 cells/mL. The 24 well plate was taken out and placed in a small chamber for a migration experiment and the 24 well plate with the matrix gel for an invasion experiment. 200 μL of a corresponding cell suspension was added to an upper chamber, and 700 μL of a corresponding culture medium containing 10% FBS was added to a lower chamber. The 24 well plate was further placed in an incubator for cultivation. The 24 well plate for the migration experiment was cultured for 24 hours before being taken out, while the 24 well plate for the invasion experiment was cultured for 48 hours before being taken out. The culture medium in the small chamber was poured out. The inside of the small chamber was cleaned with a cotton swab, and washed twice with the PBS buffer. The small chamber was fixed in 4% paraformaldehyde for 30 minutes, and stained in 1% crystal violet solution for 10 minutes after fixation. The small chamber was taken out, washed twice with the PBS buffer, dried with an absorbent paper, observed and counted under a microscope. The impact of CA, BDMC, and combined administration intervention on cell migration after knocking down MCM2 in SKOV3 and Hey ovarian cancer cells was shown in FIGS. 19A-19D. The scale in FIGS. 19A-19D was 10 μM; A represented the migration of SKOV3 cells; B represented the migration of Hey cells; C represented the invasion of SKOV3 cells; and D represented the invasion of Hey cells. Compared with the sh-NC group, ##P<0.01; compared with the sh-NC+CA+BDMC group, &&P<0.01; and ** P<0.01. The impact of CA, BDMC, and combined administration intervention on cell migration after overexpression of MCM2 on the SKOV3 and Hey ovarian cancer cells was shown in FIGS. 20A-20D. The scale in FIGS. 20A-20D was 10 μM, A represented the migration of SKOV3 cells; B represented the migration of Hey cells; C represented the invasion of SKOV3 cells; and D represented the invasion of Hey cells. Compared with the OE-NC group, ##P<0.01; compared with the OE-NC+CA+BDMC group, &&P<0.01; and compared with the OE-MCM2+CA+BDMC group, ΔP<0.05, ΔΔP<0.01; and ** P<0.01.

Hey ovarian cancer cells [2] = assay: as above
Experimental: as §1

[3] = tested on: SKOV3 ovarian cancer cells; assay: Colony formation with MCM2 knockdown or overexpression
Experimental: (§2) SKOV3 and Hey ovarian cancer cells in logarithmic growth phase were knocked down with MCM2 (Control group, sh-NC group, sh-MCM2 group) and overexpressed with MCM2 (Control group, OE-NC group, OE-MCM2 group). The original culture medium was discarded, washed with PBS buffer, and digested with 0.1% trypsin. A corresponding culture medium was added to prepare a cell suspension. Cells were counted using a hemocytometer and a cell concentration was quantified at 10^3 cells/mL. 1500 μL of each well was inoculated into a 6 well plate, with 3 parallel wells in each group, and incubated in a 37° C. incubator containing 5% CO2 for 12 days. The medium was changed every three days. After the cultivation time was over, the six well plate was taken out, and the original culture medium was poured out. An appropriate amount of 4% paraformaldehyde was added to each well and fixed for 30 minutes. The plate was washed twice with a PBS buffer after pouring out the paraformaldehyde, an appropriate amount of 1% crystal violet solution was added for staining for 10 minutes, the crystal violet solution was poured out, and the plate was washed twice with PBS. Photos were taken, and the number of cell clones formed was counted. After knocking down MCM2 on the SKOV3 and Hey ovarian cancer cells and intervening with CA, BDMC, and combination administration, the results were shown in FIGS. 17A-17B. In FIGS. 17A-17B, A represented the formation of SKOV3 cell clones; and B represented the formation of Hey cell clones. Compared with the sh-NC group, #P<0.05, ##P<0.01; compared with the sh-NC+CA+BDMC group, &P<0.05, &&P<0.01; and ** P<0.01. In FIGS. 18A-18B, A represented the formation of SKOV3 cell clones; and B represented the formation of Hey cell clones. Compared with the OE-NC group, #P<0.05, ##P<0.01; compared with the OE-NC+CA+BDMC group, &P<0.05, &&P<0.01; and *P<0.05; and compared with the OE-MCM2+CA+BDMC group, ΔP<0.05, ΔΔP<0.01; and *P<0.05, ** P<0.01.

Hey ovarian cancer cells [4] = assay: as above
Experimental: as §2

[5] = tested on: E-cadherin, N-cadherin, Vimentin in Hey cells; assay: Expression of EMT related proteins in cells
[6] = SKOV3 OE-MCM2 cells (MCM2 overexpression), vs OE-MCM2 group
[7] = SKOV3 OE-NC cells (empty vector), vs OE-NC group
[8] = SKOV3 sh-MCM2 cells (MCM2 knockdown), vs sh-MCM2 group
[9] = SKOV3 sh-NC cells (empty vector), vs sh-NC group
[10] = Hey OE-MCM2 cells (MCM2 overexpression), vs OE-MCM2 group
[11] = Hey OE-NC cells (empty vector), vs OE-NC group
[12] = Hey sh-MCM2 cells (MCM2 knockdown), vs sh-MCM2 group
[13] = Hey sh-NC cells (empty vector), vs sh-NC group

COc1ccc(-c2coc3cc(O)ccc3c2=O)cc1O [CA, calycosin]
number of the invading cells [1, 6]: no significant change
number of the migrating cells [1, 6]: no significant change
number of the invading cells [1, 7]: significantly reduced
number of the migrating cells [1, 7]: significantly reduced
number of the invading cells [1, 8]: no significant change
number of the migrating cells [1, 8]: no significant change
number of the invading cells [1, 9]: significantly reduced
number of the migrating cells [1, 9]: significantly reduced
number of the invading cells (Hey ovarian cancer cells [2]; [10]): no significant change
number of the migrating cells (Hey ovarian cancer cells [2]; [10]): no significant change
number of the invading cells (Hey ovarian cancer cells [2]; [11]): significantly reduced
number of the migrating cells (Hey ovarian cancer cells [2]; [11]): significantly reduced
number of the invading cells (Hey ovarian cancer cells [2]; [12]): no significant change
number of the migrating cells (Hey ovarian cancer cells [2]; [12]): no significant change
number of the invading cells (Hey ovarian cancer cells [2]; [13]): significantly reduced
number of the migrating cells (Hey ovarian cancer cells [2]; [13]): significantly reduced
number of plaques formed by cloning [3, 6]: no significant change
number of plaques formed by cloning [3, 7]: significantly reduced
number of plaques formed by cloning [3, 8]: no significant change
number of plaques formed by cloning [3, 9]: significantly reduced
number of plaques formed by cloning (Hey ovarian cancer cells [4]; [10]): no significant change
number of plaques formed by cloning (Hey ovarian cancer cells [4]; [11]): significantly reduced
number of plaques formed by cloning (Hey ovarian cancer cells [4]; [12]): no significant change
number of plaques formed by cloning (Hey ovarian cancer cells [4]; [13]): significantly reduced
expression of E-cadherin [5, 10]: no significant change
expression of N-cadherin [5, 10]: no significant change
expression of Vimentin [5, 10]: no significant change
expression of E-cadherin [5, 11]: significantly increased
expression of N-cadherin [5, 11]: significantly decreased
expression of Vimentin [5, 11]: significantly decreased
expression of E-cadherin [5, 12]: no significant change
expression of N-cadherin [5, 12]: no significant change
expression of Vimentin [5, 12]: no significant change
expression of E-cadherin [5, 13]: significantly increased
expression of N-cadherin [5, 13]: significantly decreased
expression of Vimentin [5, 13]: significantly decreased
